Data reported in patent US6395896B2, “Pyridazine derivatives, manufacturing method and related composition” (Shiseido Co., Ltd., priority 1999, dated 2002).

Assays:
[1] = Drug stabilization effect (photostabilizer, sunlight exposure); design: key to Sunlight exposure (80 MJ) Appearance: A: No change; B: No almost change; C: Yes change; settings: photostabilizer 0.05, amounts wt %
Experimental: Next, the photo stabilization effect and changes in appearance in drug compositions were studied according to the following evaluation formulation.
Each test sample was prepared. Appearance changes of the samples exposed to sunlight (80 MJ) was observed (visual evaluation). Also, residual yield was measured by liquid chromatography.

[2] = Colorant stabilization effect (photostabilizer, sunlight exposure); design: key to Sunlight exposure (80 MJ) Appearance: A: No change; B: No almost change; C: Yes change; key to Sunlight exposure (80 MJ) ΔE: ΔE color difference (Lab) vs. color before sunlight exposure; settings: photostabilizer 0.05 wt %
Experimental: First of all, the photostabilization effect and appearance change of a composition in each pigment were studied by the following evaluation formulation.
Each test sample was prepared. Observation of appearance change (visual evaluation) and measurement of color difference (ΔE) were carried out in samples exposed to sunlight exposure (around 80 MJ).
Color difference was measured by Lab coordinate system with spectrophotometer. Color difference was calculated on the basis of the color before sunlight exposure. Namely, from measured value (L1,a1,b1) before sunlight exposure, color difference (ΔE) was calculated by following formula.

[3] = Perfume stabilization effect (photostabilizer, sunlight exposure, judgement by perfumier); design: key to Sunlight exposure (80 MJ) Smell evaluation / Sunlight exposure (80 MJ) evaluation: A: No change; B: No almost change; C: Yes change
Experimental: Next, the photostabilization effect for each perfume was studied by the following evaluation formulation.
Each test sample was prepared. Change of smell of sample exposed to sunlight (80 MJ) was observed (judgement by perfumier).

[4] = drug 2-o-α-α-glucopyranosyl-L-ascorbic acid 2.0
[5] = drug Dibutylhydroxytoluene 0.01
[6] = drug Dipotassium glycyrrhizinate 0.05
[7] = drug L-ascorbic acid 2-(dl-α-tocopheryl hydrogen phosphate) potassium salt 0.01
[8] = Base perfume Fruity 0.03 wt %, photostabilizer 0.1 wt %
[9] = Base perfume Muguet 0.03 wt %, photostabilizer 0.05 wt %
[10] = Base perfume Rose 0.03 wt %, photostabilizer 0.05 wt %
[11] = Base perfume Spicy 0.03 wt %, photostabilizer 0.2 wt %
[12] = Base perfume Woody 0.03 wt %, photostabilizer 0.1 wt %
[13] = Natural perfume Jasmine oil 0.03 wt %, photostabilizer 0.05 wt %
[14] = Natural perfume Lavender oil 0.03 wt %, photostabilizer 0.1 wt %
[15] = Natural perfume Neroli oil 0.03 wt %, photostabilizer 0.1 wt %
[16] = Natural perfume Rose oil 0.03 wt %, photostabilizer 0.05 wt %
[17] = Natural perfume Ylang ylang oil 0.03 wt %, photostabilizer 0.2 wt %
[18] = Synthetic perfume Citral 0.03 wt %, photostabilizer 0.1 wt %
[19] = Synthetic perfume Limonene 0.03 wt %, photostabilizer 0.05 wt %
[20] = Synthetic perfume Linalool 0.03 wt %, photostabilizer 0.05 wt %
[21] = Synthetic perfume Linalyl acetate 0.03 wt %, photostabilizer 0.1 wt %
[22] = Synthetic perfume Rose oxide 0.03 wt %, photostabilizer 0.2 wt %
[23] = Red No. 106 0.00001 wt % + Yellow No. 5 0.0001 wt %
[24] = Red No. 106 0.00001 wt % + Yellow No. 203 0.0001 wt %
[25] = Red No. 213 0.00001 wt % + Blue No. 1 0.00001 wt %
[26] = Red No. 227 0.0001 wt % + Yellow No. 5 0.0001 wt %
[27] = Red No. 227 0.0001 wt % + Yellow No. 203 0.0001 wt %
[28] = Red No. 401 0.0001 wt % + Blue No. 1 0.00001 wt %
[29] = Red No. 401 0.0001 wt % + Green No. 3 0.00001 wt %
[30] = Yellow No. 203 0.0001 wt % + Yellow No. 5 0.0001 wt %

## COc1cc(O)c(C(=O)c2ccccc2)cc1S(=O)(=O)[O-].[Na+] [2-Hydroxy-4-methoxybenzophenone-5-sodium sulfonate, reference compound]
[1]; [4]
  Sunlight exposure (80 MJ) Appearance: B
  Sunlight exposure (80 MJ) Residual yield [%]: 97.8%
[1]; [5]
  Sunlight exposure (80 MJ) Appearance: B
  Sunlight exposure (80 MJ) Residual yield [%]: 94.8%
[1]; [6]
  Sunlight exposure (80 MJ) Appearance: B
  Sunlight exposure (80 MJ) Residual yield [%]: 97.5%
[1]; [7]
  Sunlight exposure (80 MJ) Appearance: B
  Sunlight exposure (80 MJ) Residual yield [%]: 95.0%
[1]; drug Salicylic acid 0.1
  Sunlight exposure (80 MJ) Appearance: B
  Sunlight exposure (80 MJ) Residual yield [%]: 98.0%
[2]; Blue No. 1 0.0001 wt %
  Sunlight exposure (80 MJ) Appearance: B
  Sunlight exposure (80 MJ) ΔE: 1.67
[2]; Green No. 3 0.0001 wt %
  Sunlight exposure (80 MJ) Appearance: B
  Sunlight exposure (80 MJ) ΔE: 0.74
[2]; Red No. 106 0.0001 wt %
  Sunlight exposure (80 MJ) Appearance: B
  Sunlight exposure (80 MJ) ΔE: 0.98
[2]; Red No. 213 0.0001 wt %
  Sunlight exposure (80 MJ) Appearance: B
  Sunlight exposure (80 MJ) ΔE: 1.28
[2]; Red No. 227 0.0001 wt %
  Sunlight exposure (80 MJ) Appearance: B
  Sunlight exposure (80 MJ) ΔE: 0.80
[2]; Red No. 401 0.001 wt %
  Sunlight exposure (80 MJ) Appearance: B
  Sunlight exposure (80 MJ) ΔE: 1.39
[2]; Yellow No. 5 0.001 wt %
  Sunlight exposure (80 MJ) Appearance: B
  Sunlight exposure (80 MJ) ΔE: 0.78
[2]; Yellow No. 203 0.001 wt %
  Sunlight exposure (80 MJ) Appearance: B
  Sunlight exposure (80 MJ) ΔE: 0.76
[3]; [8]
  Sunlight exposure (80 MJ) Smell evaluation: B
[3]; [9]
  Sunlight exposure (80 MJ) Smell evaluation: B
[3]; [10]
  Sunlight exposure (80 MJ) Smell evaluation: B
[3]; [11]
  Sunlight exposure (80 MJ) Smell evaluation: B
[3]; [12]
  Sunlight exposure (80 MJ) Smell evaluation: B
[3]; [13]
  Sunlight exposure (80 MJ) Smell evaluation: B
[3]; [14]
  Sunlight exposure (80 MJ) Smell evaluation: B
[3]; [15]
  Sunlight exposure (80 MJ) Smell evaluation: B
[3]; [16]
  Sunlight exposure (80 MJ) Smell evaluation: B
[3]; [17]
  Sunlight exposure (80 MJ) Smell evaluation: B
[3]; [18]
  Sunlight exposure (80 MJ) Smell evaluation: B
[3]; [19]
  Sunlight exposure (80 MJ) Smell evaluation: B
[3]; [20]
  Sunlight exposure (80 MJ) Smell evaluation: B
[3]; [21]
  Sunlight exposure (80 MJ) Smell evaluation: B
[3]; [22]
  Sunlight exposure (80 MJ) Smell evaluation: B

## COc1ccc(C(=O)CC(=O)c2ccc(C(C)(C)C)cc2)cc1 [4-tert-Butyl-4′-methoxy-di-benzoylmethane, reference compound]
[1]; [4]
  Sunlight exposure (80 MJ) Appearance: B
  Sunlight exposure (80 MJ) Residual yield [%]: 97.0%
[1]; [5]
  Sunlight exposure (80 MJ) Appearance: B
  Sunlight exposure (80 MJ) Residual yield [%]: 95.2%
[1]; [6]
  Sunlight exposure (80 MJ) Appearance: B
  Sunlight exposure (80 MJ) Residual yield [%]: 96.6%
[1]; [7]
  Sunlight exposure (80 MJ) Appearance: B
  Sunlight exposure (80 MJ) Residual yield [%]: 94.5%
[1]; drug Salicylic acid 0.1
  Sunlight exposure (80 MJ) Appearance: B
  Sunlight exposure (80 MJ) Residual yield [%]: 97.2%
[2]; Blue No. 1 0.0001 wt %
  Sunlight exposure (80 MJ) Appearance: B
  Sunlight exposure (80 MJ) ΔE: 1.49
[2]; Green No. 3 0.0001 wt %
  Sunlight exposure (80 MJ) Appearance: B
  Sunlight exposure (80 MJ) ΔE: 0.62
[2]; [23]
  Sunlight exposure (80 MJ) Appearance: B
  Sunlight exposure (80 MJ) ΔE: 0.92
[2]; [24]
  Sunlight exposure (80 MJ) Appearance: B
  Sunlight exposure (80 MJ) ΔE: 1.02
[2]; Red No. 106 0.0001 wt %
  Sunlight exposure (80 MJ) Appearance: B
  Sunlight exposure (80 MJ) ΔE: 1.02
[2]; [25]
  Sunlight exposure (80 MJ) Appearance: B
  Sunlight exposure (80 MJ) ΔE: 1.17
[2]; Red No. 213 0.0001 wt %
  Sunlight exposure (80 MJ) Appearance: B
  Sunlight exposure (80 MJ) ΔE: 1.02
[2]; [26]
  Sunlight exposure (80 MJ) Appearance: B
  Sunlight exposure (80 MJ) ΔE: 0.80
[2]; [27]
  Sunlight exposure (80 MJ) Appearance: B
  Sunlight exposure (80 MJ) ΔE: 1.12
[2]; Red No. 227 0.0001 wt %
  Sunlight exposure (80 MJ) Appearance: B
  Sunlight exposure (80 MJ) ΔE: 0.95
[2]; [28]
  Sunlight exposure (80 MJ) Appearance: B
  Sunlight exposure (80 MJ) ΔE: 0.93
[2]; [29]
  Sunlight exposure (80 MJ) Appearance: B
  Sunlight exposure (80 MJ) ΔE: 0.99
[2]; Red No. 401 0.001 wt %
  Sunlight exposure (80 MJ) Appearance: B
  Sunlight exposure (80 MJ) ΔE: 1.02
[2]; Yellow No. 5 0.001 wt %
  Sunlight exposure (80 MJ) Appearance: B
  Sunlight exposure (80 MJ) ΔE: 0.88
[2]; [30]
  Sunlight exposure (80 MJ) Appearance: A
  Sunlight exposure (80 MJ) ΔE: 0.48
[2]; Yellow No. 203 0.001 wt %
  Sunlight exposure (80 MJ) Appearance: B
  Sunlight exposure (80 MJ) ΔE: 0.68
[3]; [8]
  Sunlight exposure (80 MJ) Smell evaluation: B
[3]; [9]
  Sunlight exposure (80 MJ) Smell evaluation: B
[3]; [10]
  Sunlight exposure (80 MJ) Smell evaluation: B
[3]; [11]
  Sunlight exposure (80 MJ) Smell evaluation: B
[3]; [12]
  Sunlight exposure (80 MJ) Smell evaluation: B
[3]; [13]
  Sunlight exposure (80 MJ) Smell evaluation: B
[3]; [14]
  Sunlight exposure (80 MJ) Smell evaluation: B
[3]; [15]
  Sunlight exposure (80 MJ) Smell evaluation: B
[3]; [16]
  Sunlight exposure (80 MJ) Smell evaluation: B
[3]; [17]
  Sunlight exposure (80 MJ) Smell evaluation: B
[3]; [18]
  Sunlight exposure (80 MJ) Smell evaluation: B
[3]; [19]
  Sunlight exposure (80 MJ) Smell evaluation: B
[3]; [20]
  Sunlight exposure (80 MJ) Smell evaluation: B
[3]; [21]
  Sunlight exposure (80 MJ) Smell evaluation: B
[3]; [22]
  Sunlight exposure (80 MJ) Smell evaluation: B
